Reference: PMC3055912, “A Method for Structure–Activity Analysis of Quorum-Sensing Signaling Peptides from Naturally Transformable Streptococci” (Biological Procedures Online, 2009)
Peptide text beside a SMILES is read from it.

Experiments:
[1] = tested on: comDE promoter (PcomDE::lacZ) in comC mutant SMdC; experiment: comDE-lacZ reporter β-gal activity, strain SMdC-pYH2; assay type: cell-based, Streptococcus mutans; conditions: background control SMdC-pSL showed no significant difference
Excerpt: (§1) To assay QS activation in response to addition of a peptide, we constructed two types of lacZ transcriptional reporter strains that represented two levels of QS-activated gene expression. The first was a lacZ reporter gene fused to the comDE promoter, which allowed monitoring of the activity of the comDE promoter in response to a test peptide. The second strain was a lacZ reporter gene fused to the promoter of nlmAB, the gene encoding a nonlantibiotic bacteriocin and its expression directly controlled by the ComE [6, 22]. This strain allowed assay of comDE-controlled bacteriocin production.
For the first reporter strain, we simply transformed previously constructed vector pYH2 [10] into the comC mutant (SMdC) to generate SMdC-pYH2 (PcomDE::lacZ, comC^-, Spec^r, Kan^r). pYH2 was constructed in such a way that the comDE promoter was fused to a promoterless lacZ gene on the backbone of Streptococcus–Escherichia coli shuttle vector pSL. […] These strains were then assessed for lacZ reporter activity in response to addition of peptides.
A lacZ reporter assay was performed to monitor quorum-sensing activation using the same method as described previously. The newly constructed lacZ reporter strains were used to assay and quantify β-galactosidase activity in response to test peptides. […] Protein concentrations of the supernatants were determined by Bio-Rad protein assay (Bio-Rad). […]

[2] = tested on: S. mutans comC mutant SMdC (indicator strain Streptococcus sanguinis SK108); experiment: QS-controlled bacteriocin production, agar plate overlay assay; assay type: cell-based; conditions: for level of bacteriocins induced compared with wild-type GS5: comC mutant SMdC with peptide, inhibitory zone against S. sanguinis SK108, Figure 5
Description: The S. mutans comC mutant SMdC as well as its parent GS5 and wild-type strain UA159 (positive controls) were used to assay for bacteriocin production using a modified agar plate method. Briefly, an aliquot of mid-log phase cells of the S. mutans wild-type strains and mutant SMdC grown under a condition with or without use of CSP or a test peptide were stabbed onto THYE agar plates. The plates were incubated anaerobically at 37°C for 6 h before carefully overlaid with 100 μL of cell suspension (about 10^6 CFU/mL^-1) of an indicator strain Streptococcus sanguinis SK108. The plates were further incubated anaerobically at 37°C for 24 h before inspection of bacteriocin production. The S. mutans strains showing an inhibitory zone around the stabs were scored as positive for bacteriocin production. The plates were then photographed for records.

[3] = tested on: comDE promoter (PcomDE::lacZ) in comC mutant SMdC; conditions: SMdC-pYH2; cited from earlier work
Description: We also used this mutant (SMdC) as a host to generate two types of lacZ transcriptional reporter fusion strains to assay the promoter activity of QS-controlled target genes, comDE and nlmAB, in response to addition of CSP. The lacZ reporter strain, SMdC-pYH2 (PcomDE::lacZ, comC^-, Spec^r, Kan^r), along with its background control strain SMdC-pSL (comC^-, Spec^r, Kan^r) were then assayed for β-galactosidase activity.

[4] = aqueous buffer 50 mM K2HPO4/KH2PO4 pH 7.0; NMR needs 1.0 to 10 mM peptide
Description: For NMR studies, buffers, co-solvents, and additives were hydrogen-free or deuterated. Samples could be dissolved in as little as 10 μL, but typically, spectrometers were designed for sample volumes of at least 500 μL. Due to the inherently low sensitivity, concentrations of peptides ranged from 1.0 to 10 mM [13].
In our study, synthetic peptides CSP (UA159sp) and TPC3 for CD and NMR were dissolved in 95/5/0%, 70/0/30%, 30/0/70%, or 0/0/100% aqueous buffer/D2O/TFE-d2, or 95/5 aqueous buffer/D2O with 300 mM DPC-d38 (98 atom %D), where TFE refers to trifluoroethanol and DPC-d38 refers to perdeuterated dodecylphosphocholine [10, 13]. The aqueous buffer used for sample preparation contained 50 mM K2HPO4/KH2PO4 at pH 7.0. The concentration of peptides for solutions containing 100% TFE-d2 or DPC-d38 was 2 and 5 mM.

[5] = tested on: nlmAB promoter (PnlmAB::lacZ) in comC mutant SMdC; experiment: nlmAB-lacZ reporter β-gal activity, strain SMdC-PnlmAB; assay type: cell-based, Streptococcus mutans; conditions: for time for which the high level of β-gal activity is maintained / time of highest level of β-gal activity after addition of peptide: SMdC-PnlmAB, time-course experiment
Excerpt: as §1
For the second reporter strain, we generated a chromosomal nlmAB–lacZ fusion strain by transforming a PnlmAB::lacZ fusion construct pOMZ47 [6] into both comC mutant SMdC and wild-type GS5. The resulting reporter strains were confirmed by PCR and sequencing of the fusion sites as described previously. The confirmed reporter strains were respectively named SMdC-PnlmAB (PnlmAB::lacZ, comC^-, Kan^r, Spec^r) and SMGS5-PnlmAB (PnlmAB::lacZ, Kan^r). The strain SMGS5-PnlmAB was used a positive control.
A lacZ reporter assay was performed to monitor quorum-sensing activation using the same method as described previously. The newly constructed lacZ reporter strains were used to assay and quantify β-galactosidase activity in response to test peptides. Aliquots of samples were taken to prepare cell lysates at different time points T0, T15, T30, T60, and T120 after addition of a test peptide. Protein concentrations of the supernatants were determined by Bio-Rad protein assay (Bio-Rad). Specific β-gal activities (A420 min^-1 mL^-1 mg^-1 protein) were calculated from triplicate samples from two independent experiments. The data from the β-gal activity experiments were then normalized against negative or background controls and plotted as percentages of maximal activation versus log peptide concentrations. The half maximal activation concentration (AC50) was determined from the sigmoidal dose–response curve using Prism 4 (Graphpad, San Diego, CA, USA).

[6] = tested on: S. mutans comC mutant SMdC; experiment: CSP-dependent transformation (genetic competence) assay; assay type: cell-based, Streptococcus mutans; conditions: data not shown
Excerpt: To determine if synthetic peptides activated quorum sensing for induction of genetic competence, we used the comC deletion mutant that was unable to produce, but still responded to CSP, to assay peptide-dependent genetic transformation using the method as described previously. A streptococcal suicide vector pVA-gtfA, which harbored a 2.4-kb fragment of the S. mutans gtfA gene and an erythromycin resistance marker, was used as transforming DNA. The wild-type GS5 was used as a positive control, while both ComC (SMdC) and ComE mutants (SMdE) were used as negative controls. The wild-type strain was grown on Todd–Hewitt yeast extract (THYE) medium, whereas the mutants were maintained on THYE plus spectinomycin. When culture reached to early mid-log phase (OD600 ≈ 0.25), an aliquot of CSP was added into the culture at a final concentration of 50 nM (AC50 ≈ 0.25 nM). […] Transformation frequency was expressed as percentage of transformants against total viable recipient cells per milliliter cell suspension. […]
7. All the plates are incubated at 37°C for 2 days before assessment of transformation frequency, which is expressed as percentages of transformants (erythromycin-resistant colonies) against total recipient cells per […] cell suspension. […]

[7] = target: quorum sensing (ComCDE signaling) in S. mutans lacZ reporter strains (Streptococcus mutans serotype c, UniProt Q8DS94); conditions: truncated peptides; cited from earlier work
quorum sensing (ComCDE signaling) in S. mutans lacZ reporter strains, sequence (Q8DS94 entry or part of it): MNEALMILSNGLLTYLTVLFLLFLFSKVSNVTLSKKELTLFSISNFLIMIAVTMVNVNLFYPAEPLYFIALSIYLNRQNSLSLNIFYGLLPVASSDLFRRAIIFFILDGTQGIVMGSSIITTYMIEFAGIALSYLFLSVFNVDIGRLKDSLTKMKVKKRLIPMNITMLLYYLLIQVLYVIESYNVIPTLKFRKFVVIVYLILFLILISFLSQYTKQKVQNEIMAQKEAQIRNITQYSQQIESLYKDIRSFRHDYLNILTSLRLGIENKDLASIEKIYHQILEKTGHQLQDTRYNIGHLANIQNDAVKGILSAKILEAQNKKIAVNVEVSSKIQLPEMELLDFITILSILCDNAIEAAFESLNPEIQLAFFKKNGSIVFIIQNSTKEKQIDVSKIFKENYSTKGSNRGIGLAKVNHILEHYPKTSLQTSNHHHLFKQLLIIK
Excerpt: Based on the three-dimensional structures of S. mutans wild-type signaling peptide UA159sp (CSP) and C-terminally truncated peptide TPC3 from mutant JH1005 defective in genetic competence, we designed and synthesized a series of truncated peptides and peptides with amino acid substitutions. […] The C-terminal structural motif consisting of a sequence of polar hydrophobic charged residues is crucial for activating the signal transduction pathway, while the core α-helical structure ext ...

Compound	level of bacteriocins induced compared with wild-type GS5 [2]	solubility in water for NMR [4]	time for which the high level of β-gal activity is maintained [5]	time of highest level of β-gal activity after addition of peptide [5]	agonist function, AC50 compared with CSP [7]	other results
CC(C)C[C@H](NC(=O)[C@H](C)NC(=O)[C@H](CCC(N)=O)NC(=O)[C@@H](NC(=O)[C@H](Cc1ccccc1)NC(=O)[C@H](CO)NC(=O)[C@H](CCCNC(=N)N)NC(=O)[C@H](CC(N)=O)NC(=O)[C@H](Cc1ccccc1)NC(=O)[C@H](CC(C)C)NC(=O)[C@H](CCCNC(=N)N)NC(=O)[C@H](Cc1ccccc1)NC(=O)[C@H](Cc1ccccc1)NC(=O)[C@@H](NC(=O)[C@H](CO)NC(=O)[C@H](CC(C)C)NC(=O)[C@H](CO)NC(=O)CNC(=O)[C@@H](N)CO)[C@@H](C)O)[C@@H](C)O)C(=O)NCC(=O)N[C@@H](CCCCN)C(=O)O [CSP (UA159sp), reference compound] (H-SGSLSTFFRLFNRSFTQALGK-OH)	induce the same level of bacteriocins as GS5	not soluble enough for extensive NMR studies	at least 2 h	around 90 min		induction of β-gal activity upon addition of peptide [1]: induced to express predicted β-gal activity; time after addition at which expression of β-gal activity declined [3]: around 40 min
CC(C)C[C@H](NC(=O)[C@H](C)NC(=O)[C@H](CCC(N)=O)NC(=O)[C@@H](NC(=O)[C@H](Cc1ccccc1)NC(=O)[C@H](CO)NC(=O)[C@H](Cc1ccccc1)NC(=O)[C@H](CC(N)=O)NC(=O)[C@H](Cc1ccccc1)NC(=O)[C@H](CC(C)C)NC(=O)[C@H](CCCNC(=N)N)NC(=O)[C@H](Cc1ccccc1)NC(=O)[C@H](Cc1ccccc1)NC(=O)[C@@H](NC(=O)[C@H](CO)NC(=O)[C@H](CC(C)C)NC(=O)[C@@H](N)CO)[C@@H](C)O)[C@@H](C)O)C(=O)NCC(=O)O [SPA-18] (H-SLSTFFRLFNFSFTQALG-OH; N-terminus and C-terminus assumed)	induce the same level of bacteriocins as GS5		at least 2 h	around 90 min		replacement of CSP in inducing genetic competence [6]: could completely replace CSP (UA159sp); replacement of CSP in inducing bacteriocin production ([2]; Figure 5): could completely replace CSP (UA159sp); replacement of CSP in activating quorum sensing ([5]; β-gal activity of SMdC-PnlmAB, Figure 4): could completely replace CSP (UA159sp)
CC(C)C[C@H](NC(=O)[C@H](C)NC(=O)[C@H](CCC(N)=O)NC(=O)[C@@H](NC(=O)[C@H](Cc1ccccc1)NC(=O)[C@H](CO)NC(=O)[C@H](CCCNC(=N)N)NC(=O)[C@H](CC(N)=O)NC(=O)[C@H](Cc1ccccc1)NC(=O)[C@H](CC(C)C)NC(=O)[C@H](CCCNC(=N)N)NC(=O)[C@H](Cc1ccccc1)NC(=O)[C@H](Cc1ccccc1)NC(=O)[C@@H](NC(=O)[C@H](CO)NC(=O)[C@H](CC(C)C)NC(=O)[C@H](CO)NC(=O)CNC(=O)[C@@H](N)CO)[C@@H](C)O)[C@@H](C)O)C(=O)NCC(=O)O [TPC1] (H-SGSLSTFFRLFNRSFTQALG-OH; N-terminus and C-terminus assumed)					functioned as agonists with AC50 values similar to CSP	
CC(C)C[C@H](NC(=O)[C@H](CCCNC(=N)N)NC(=O)[C@H](Cc1ccccc1)NC(=O)[C@H](Cc1ccccc1)NC(=O)[C@@H](NC(=O)[C@H](CO)NC(=O)[C@H](CC(C)C)NC(=O)[C@@H](NC(=O)CNC(=O)[C@@H](N)CO)[C@@H](C)O)[C@@H](C)O)C(=O)N[C@@H](Cc1ccccc1)C(=O)N[C@@H](CC(N)=O)C(=O)N[C@@H](CCCNC(=N)N)C(=O)N[C@@H](CO)C(=O)N[C@@H](Cc1ccccc1)C(=O)N[C@H](C(=O)N[C@@H](CCC(N)=O)C(=O)N[C@@H](C)C(=O)O)[C@@H](C)O [TPC3 (JH1005sp)] (H-SGTLSTFFRLFNRSFTQA-OH)		not soluble enough for extensive NMR studies				
CC(C)C[C@H](NC(=O)[C@H](C)NC(=O)[C@H](CCC(N)=O)NC(=O)[C@@H](NC(=O)[C@H](Cc1ccccc1)NC(=O)[C@H](CO)NC(=O)[C@H](CCCNC(=N)N)NC(=O)[C@H](CC(N)=O)NC(=O)[C@H](Cc1ccccc1)NC(=O)[C@H](CC(C)C)NC(=O)[C@H](CCCNC(=N)N)NC(=O)[C@H](Cc1ccccc1)NC(=O)[C@H](Cc1ccccc1)NC(=O)[C@@H](NC(=O)[C@H](CO)NC(=O)[C@H](CC(C)C)NC(=O)[C@@H](N)CO)[C@@H](C)O)[C@@H](C)O)C(=O)NCC(=O)N[C@@H](CCCCN)C(=O)O [TPN2] (H-SLSTFFRLFNRSFTQALGK-OH; N-terminus and C-terminus assumed)					functioned as agonists with AC50 values similar to CSP	
